# Laboratory results as given in US5906922A, “Delivery of nucleic acids” (Commonwealth Scientific and Industrial Research Organisation, priority 1994, dated 1999).
# Where two headings read alike, the source gives them in different places. Where a SMILES comes first, the peptide text is derived from it. The star is where a group is joined. NHC(CH2O-Palmitoyl)3 = CCCCCCCCCCCCCCCC(=O)OCC(COC(=O)CCCCCCCCCCCCCCC)(COC(=O)CCCCCCCCCCCCCCC)N*; X1 = CCCCCCCCCCCCCCCC(=O)OCC(CO)(CO)N*
# How the values were obtained:
# CHO cells [1] = test: Transfection of pSVLCAT, CAT assay, CHO; type: cell-based, Chinese Hamster; conditions: for Transfection (CAT): Table 1, CHO, optimised level of agent
# Procedure: Protocol was the same for Verafectin and Transfectam (see above) with the exception that 0.5 μg of pSVLCAT DNA was used /60 mm dish.
# Lipofectamine protocol was according to manufacturer's instructions. 0.5 μg pSVLCAT/60 mm dish. CHO cells seeded 1×10^5 /60 mm dish and adhered overnight in DME/Hams medium with 10% FCS.
# Transfectam 5 or 10 μl 1mg/400 μl stock solution.
# Lipofectamine 5 or 10 μl 2 mg/ml (mixed formulation 3:1 with DOPE). VerafectinA3 (K3ATP3) and VerafectinG2 (K3G[Glycine]TP2) each at 5, 10 and 15 μl of 2 mM (2.8 and 2.3 mg/ml respectively) stock.
# The serum free incubation period in the presence of test agents and DNA was 6 hours, then 1 ml DME/Hams+10% FCS was added. At 24 hrs the medium was changed to 2 ml of fresh DME/Hams+10% FCS until harvest at 48 hrs.
# (§1) Cell lines Cos 1 or CHO were transfected with 0.5 μg of pSVLCAT or 2 μg of pPGKlacZ plasmid using a range of concentrations of each transfection compound. The optimal concentration of compound, that is the concentration giving the highest level of CAT at 48 hours or the greatest percentage of lac z (β-galactosidase) staining cells at 24 hours was used to collate data for Table 1. As all compounds were not tested in a single experiment, absolute figures indicating transfection were not used. Rather, symbols are used to indicate the transfection efficiency relative to Lipofectamine (BRL), which was included as a control in all experiments. Table 1 thus indicates the relative efficiencies of a number of compounds in mediating the transfection of at least one cell type.
# All test lipopeptide reagents were originally dissolved at 10 mM in 75% DMSO, and subsequently diluted with water to make a 2 mM stock stored at 4° C. Volumes of 2 mM stock lipopeptide ranging from 2 μl to 15 μl were diluted in 500 μl of DDME. 1 μg of plasmid pSVLCAT was separately diluted in 500 μl of DDME. Solutions were combined for 10-20 min at room temperature before adding to 500 μl of DDME in 60 mm dishes of subconfluent CHO cells (2×10^5 day-1) or Cos 1 cells (5×10^5 day-1); washed free of serum with DDME.
# Cells were incubated for 6 hrs under standard conditions of 37° C. and 5% CO2 for 6 hours. 1.5 ml of DME/Hams+10% FCS (CHO) or DME+10% FCS (Cos 1) was added to the cells for overnight incubation. Fresh DME/Hams+10% FCS or DME+10% FCS was used to replace the medium for a further 24 hours prior to harvest. Cell lysates were prepared and assayed for CAT activity as described above. For Cos 1 cells, culture supernatants were assayed for CAT activity.
# a. Using the standard transfection procedure described above, and 1 μg plasmid pSVLCAT, these formulations were tested on CHO cells at a single concentration equivalent to 10 μl of Verafectin A2 (2 mM) per sample and compared to unformulated compound and Lipofectamine in the same cell type. CAT production was assayed 48 hours after transfection.
# Cos 1 cells [2] = test: Transfection of pSVLCAT, CAT assay, Cos 1; type: cell-based, African Green Monkey; conditions: for Transfection (CAT): Table 1, Cos 1, optimised level of agent
# Cos 1 cells [3] = test: Proportion of cells transfected (β-gal staining), Cos 1; type: cell-based, African Green Monkey; conditions: Table 1, Cos 1, % of cells
# Procedure: as §1
# (§2) These conjugates were used to transfect CHO and Cos 1 cells with pPGKlacZNLS for estimation of the proportion of cells transfected. The transfection conditions used were as described above for the CAT experiments with cells being grown in 35 mm dishes for transfection. Cells were seeded the day prior to transfection at a density of 3.4×10^5 /dish (Cos 1) or 6.8×10^4 /dish (CHO). […] Random fields of cells were examined under the light microscope and the proportion of blue (β-GAL expressing) cells was determined.
# CHO cells [4] = test: Proportion of cells transfected (β-gal staining), CHO; type: cell-based, Chinese Hamster
# Procedure: as §1
# as §2, with “determined. […]” for “determined.”
# Cos 1 cells [5] = type: cell-based, African Green Monkey
# Summary of the method: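 Relative viability of Cos 1 cells exposed to lipid/DNA agents was read as MTS optical density; higher OD means greater viability. Some points came from separate experiments.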
# mammalian cells = test: Transfection efficiency, general conclusions over cell lines; type: cell-based; conditions: other experiments (not shown)
# Procedure: as §1
# The compounds of the generic formula described on page 3 were addressed as consisting of the described basic building blocks: "x, y, R1-R4". These components were systematically varied to assess the optimal building blocks for transfection of standard cell lines in a standard assay system. Results will be presented by the use of example experiments, and shown as the levels of reporter gene expression achieved under standard conditions by either overall levels (CAT or β-galactosidase expression) or as % cells transfected (β-galactosidase--blue cells). Representative levels of cytotoxicity will also be described. […]
# Cos 1 cells [6] = test: β-gal microtitre plate transfection assay, Cos 1; type: cell-based, African Green Monkey; conditions: for β-gal (Cos 1): Table 3, Cos 1, highest reading of 72 conditions
# Summary of the method: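 Cos 1 cells were transfected with β-galactosidase plasmids (mouse PGK or SV40 early promoter) across varied lipid/DNA ratios in microtitre format. The lipid/DNA ratio giving maximal expression was recorded. Viability was measured with alamar blue or MTS, where higher OD means greater viability.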
# CHO cells [7] = type: cell-based, Chinese Hamster
# Procedure: (LEGEND--FIGS. 7, 8 and 9; none; no agent used with plasmid DNA, rb/blank; reagent blank, number following description of compound indicates no. μl of 2 mM stock (diluted with water). 7b: 100% cell survival was taken from dishes which were "mock transfected" with no DNA or transfection agent. 0% viability was assayed in the absence of cells. Viability was assessed using the dye alamar blue.)
# (§3) Relative levels of cytotoxicity caused by the different agents were compared during the experiment using the dye "Alamar Blue" (Alamar, Sacramento Calif.).
# (§4) The ratio of [lipid]/[DNA] at which that maximum was achieved is shown in brackets for the two different cell types in the following order; (Cos 1) (CHO). Experiments shown were carried out in Cos 1 cells, as described above. Viability was measured with the dye alamar blue . # Denotes compounds tested in a separate experiment. * Viability in this experiment was determined with MTS. OD is a measure of relative viability of the cells exposed to the different agents, and as with alamar blue, a higher value indicates greater cell viability.
# Hela cells = test: β-gal plate transfection assay, Hela; type: cell-based, Human; conditions: 48 hours
# Procedure: Hela cells were seeded in place of Cosl or CHO cells in DME+10% FCS at a density of 2×10^4 /well and transfected with pPGKlaczNLS as described above. At 48 hours, toxicity was determined by alamar blue and the cells processed for the β-gal assay.
# Cos 1 cells [8] = type: cell-based, African Green Monkey; remark: listed apart in the source
# Source text: as §3
# (§5) For experiment "c", a plasmid pPGKlaczNLS encoding β-galactosidase under the control of the mouse PGK promoter (kind gift from G.Hannan) or pSVGAL which utilises the SV40 early promoter (Sleigh, M. J. and Lockett, T. J. (1985). EMBO J. 4:3831-3837),was transfected. This experiment and assay were modified from Feigner et al J. Biol Chem. 269(4) 2550-2561 1994. This protocol allows the simultaneous assessment of 72 different combinations and concentrations of DNA and test agent in a microtitre tray. […] Cytotoxicity was assessed using alamar blue, and a sample graph is shown for experiment a.
# The ratio of [lipid]/[DNA] at which that maximum was achieved is shown. Experiments shown were carried out in Cos 1 cells, as described above. MTS OD is a measure of relative viabilility of the cells exposed to the different agents, a higher value indicates greater cell viability. * These points were taken from a separate experiment and some slight variation between absolute numbers should be expected between experiments.
# as §4
# CHO cells [9] = test: β-gal microtitre plate transfection assay, CHO; type: cell-based, Chinese Hamster; conditions: Table 3, CHO, highest reading of 72 conditions
# Source text: as §5
# Each of these compounds was tested for transfection ability and cytotoxicity on standard cell lines using standard conditions as described above.
# as §4
smiles,measurement,setting,value
CCCCCCCCCCCCCCCC(=O)OCC(COC(=O)CCCCCCCCCCCCCCC)(COC(=O)CCCCCCCCCCCCCCC)NC(=O)[C@H](C)NC(=O)[C@H](CCCCN)NC(=O)[C@H](CCCCN)NC(=O)[C@H](CCCCN)NC(=O)[C@@H](N)CCCCN [K4ATP3] (H-KKKKA-{NHC(CH2O-Palmitoyl)3}),mean level of CAT activity,"CHO cells [1]; ""x"" peptide experiment c, CHO, 2 hours incubation of 20 μl lysate",1071
same,"transfection, one to three palmitates, tetra lysine alanine","Cos 1 cells [2]; R1-R4 experiment g, Cos 1",more effective than the di or monopalmitate
same,Transfection (CAT),Cos 1 cells [2],+(+)
same,Transfection (βGal),Cos 1 cells [3],< 1%
CCCCCCCCCCCCCCCC(=O)OCC(COC(=O)CCCCCCCCCCCCCCC)(COC(=O)CCCCCCCCCCCCCCC)NC(=O)[C@H](C)N [K0ATP3],CAT transfection,"CHO cells [1]; ""x"" peptide experiment a, CHO",no measurable transfection
same,transfection (β-gal assay),CHO cells [4]; CHO cells,low levels of transfection
"CCCCCCCCCCCCCCCC(=O)OCC(CO)(CO)NC(=O)[C@H](C)NC(=O)[C@H](CCCCN)NC(=O)[C@H](CCCCN)NC(=O)[C@@H](N)CCCCN [K3ATP1, trilysine alanine tris monopalmitate] (H-KKKA-X1)",Transfection (CAT),CHO cells [1],+
same,MTS OD490-655,Cos 1 cells [5],1.34
same,Viability (Cos 1),Cos 1 cells [5],1.34
same,Transfection (CAT),Cos 1 cells [2],+
same,activity relative to tripalmitate K3 molecules,mammalian cells,30%
same,ratio [lipid]/[DNA] at which maximum was achieved,"Cos 1 cells [6]; Table 2, Cos 1",5.55
same,units β-gal,"Cos 1 cells [6]; Table 2, Cos 1, highest reading of 72 conditions",9.32 × 10^-6 units
same,ratio [lipid]/[DNA] at which maximum was achieved,"Cos 1 cells [6]; Table 3, Cos 1",5.55
same,β-gal (Cos 1),Cos 1 cells [6],9.32 × 10^-6
CCCCCCCCCC(=O)OCC(COC(=O)CCCCCCCCC)(COC(=O)CCCCCCCCC)NC(=O)[C@H](C)NC(=O)[C@H](CCCCN)NC(=O)[C@H](CCCCN)NC(=O)[C@@H](N)CCCCN [K3ATC3],Viability (CHO),CHO cells [7],0.052
same,"transfection ability, chain length C10 to C16",Hela cells,transfection ability was seriously curtailed
same,Viability (Cos 1),Cos 1 cells [8],0.104
same,β-gal (CHO),CHO cells [9],5.27 × 10^-6
same,ratio [lipid]/[DNA] at which maximum was achieved,"Cos 1 cells [6]; Table 3, Cos 1",2.77
same,β-gal (Cos 1),Cos 1 cells [6],9.08 × 10^-6
CCCCCCCCCCCCCCCC(=O)OCC(CO)(COC(=O)CCCCCCCCCCCCCCC)NC(=O)CNC(=O)[C@H](CCCCN)NC(=O)[C@H](CCCCN)NC(=O)[C@@H](N)CCCCN [K3GTP2],CAT levels relative to Lipofectamine,"CHO cells [1]; Experiment 3, CHO, 5 μl",~22%
same,CAT levels relative to Transfectam,"CHO cells [1]; Experiment 3, CHO, 5 μl",approximately 64%
same,Transfection (CAT),CHO cells [1],+++
same,transfection level relative to Lipofectamine,"Cos 1 cells [2]; Experiment 4, Cos 1, 48 hours",~30%
same,effect of equimolar DOPE on transfection efficiency,"Cos 1 cells [2]; Experiment 4, Cos 1, compared to VerafectinG2 alone",approximate doubling of transfection efficiency
same,transfection level with equimolar DOPE relative to Lipofectamine,"Cos 1 cells [2]; Experiment 4, Cos 1, plus equimolar unformulated DOPE",approximately 60%
same,Transfection (CAT),Cos 1 cells [2],++
same,Transfection (βGal),"CHO cells [4]; Table 1, CHO, % of cells",< 1%
